From patent publication US20230158157A1, “POTENT AND SELECTIVE DEGRADERS OF ALK” (DANA-FARBER CANCER INSTITUTE, INC., priority 2020, published 2023)

Experiments:
Type in all cases: cell-based
[1] = molecular target: T1, EML4-ALK (Homo sapiens, UniProt Q9UM73); assay: EML4-ALK HiBit degradation assay in CRISPR-tagged H3122 cells (Nano-Glo HiBit Lytic Detection); conditions: Table 3, H3122 cells, 16 hours
T1 construct: endogenous in cells; host or cells: H3122 (NSCLC), single-cell clone after CRISPR knock-in of HiBit; the other entry of the earlier key: EML4 (Q9HC35, Echinoderm microtubule-associated protein-like 4)
T1 sequence (Q9UM73 with tags, fused parts or gaps): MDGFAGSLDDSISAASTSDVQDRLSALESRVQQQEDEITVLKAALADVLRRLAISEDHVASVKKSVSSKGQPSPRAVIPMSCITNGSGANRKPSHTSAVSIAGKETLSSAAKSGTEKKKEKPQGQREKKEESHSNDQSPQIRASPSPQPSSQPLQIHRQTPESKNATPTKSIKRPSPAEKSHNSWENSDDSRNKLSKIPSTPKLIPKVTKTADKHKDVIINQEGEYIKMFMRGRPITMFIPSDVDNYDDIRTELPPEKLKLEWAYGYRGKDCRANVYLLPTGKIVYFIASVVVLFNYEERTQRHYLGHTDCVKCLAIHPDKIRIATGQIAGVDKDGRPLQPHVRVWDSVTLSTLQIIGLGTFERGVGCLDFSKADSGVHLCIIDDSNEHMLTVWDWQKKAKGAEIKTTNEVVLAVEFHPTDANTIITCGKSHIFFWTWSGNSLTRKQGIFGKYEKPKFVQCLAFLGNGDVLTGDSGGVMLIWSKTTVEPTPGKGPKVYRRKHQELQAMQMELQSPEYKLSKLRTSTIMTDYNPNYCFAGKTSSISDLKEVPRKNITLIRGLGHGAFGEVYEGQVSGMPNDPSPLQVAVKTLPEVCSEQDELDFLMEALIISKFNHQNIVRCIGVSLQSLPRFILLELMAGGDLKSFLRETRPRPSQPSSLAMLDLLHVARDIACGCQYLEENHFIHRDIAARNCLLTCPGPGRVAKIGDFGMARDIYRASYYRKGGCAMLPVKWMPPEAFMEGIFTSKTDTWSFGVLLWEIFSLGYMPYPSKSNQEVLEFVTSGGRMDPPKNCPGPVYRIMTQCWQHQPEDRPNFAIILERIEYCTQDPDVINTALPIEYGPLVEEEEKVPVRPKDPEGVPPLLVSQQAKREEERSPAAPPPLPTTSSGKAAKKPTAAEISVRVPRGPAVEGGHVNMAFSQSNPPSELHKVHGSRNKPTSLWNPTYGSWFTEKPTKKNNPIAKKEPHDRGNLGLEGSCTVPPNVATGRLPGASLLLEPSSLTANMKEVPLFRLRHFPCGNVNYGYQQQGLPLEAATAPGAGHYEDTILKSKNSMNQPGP

[2] = tested on: H3122 cells; assay: CTG; conditions: Homo sapiens, NCI-H3122; Table 3; read-out: CTG IC50
[3] = molecular target: T2, FAK (Homo sapiens, UniProt Q05397); assay: FAK degradation (H3122 cells)
T2 construct: FAK Degradation; endogenous in cells; host or cells: H3122
T2 sequence (Q05397 whole entry): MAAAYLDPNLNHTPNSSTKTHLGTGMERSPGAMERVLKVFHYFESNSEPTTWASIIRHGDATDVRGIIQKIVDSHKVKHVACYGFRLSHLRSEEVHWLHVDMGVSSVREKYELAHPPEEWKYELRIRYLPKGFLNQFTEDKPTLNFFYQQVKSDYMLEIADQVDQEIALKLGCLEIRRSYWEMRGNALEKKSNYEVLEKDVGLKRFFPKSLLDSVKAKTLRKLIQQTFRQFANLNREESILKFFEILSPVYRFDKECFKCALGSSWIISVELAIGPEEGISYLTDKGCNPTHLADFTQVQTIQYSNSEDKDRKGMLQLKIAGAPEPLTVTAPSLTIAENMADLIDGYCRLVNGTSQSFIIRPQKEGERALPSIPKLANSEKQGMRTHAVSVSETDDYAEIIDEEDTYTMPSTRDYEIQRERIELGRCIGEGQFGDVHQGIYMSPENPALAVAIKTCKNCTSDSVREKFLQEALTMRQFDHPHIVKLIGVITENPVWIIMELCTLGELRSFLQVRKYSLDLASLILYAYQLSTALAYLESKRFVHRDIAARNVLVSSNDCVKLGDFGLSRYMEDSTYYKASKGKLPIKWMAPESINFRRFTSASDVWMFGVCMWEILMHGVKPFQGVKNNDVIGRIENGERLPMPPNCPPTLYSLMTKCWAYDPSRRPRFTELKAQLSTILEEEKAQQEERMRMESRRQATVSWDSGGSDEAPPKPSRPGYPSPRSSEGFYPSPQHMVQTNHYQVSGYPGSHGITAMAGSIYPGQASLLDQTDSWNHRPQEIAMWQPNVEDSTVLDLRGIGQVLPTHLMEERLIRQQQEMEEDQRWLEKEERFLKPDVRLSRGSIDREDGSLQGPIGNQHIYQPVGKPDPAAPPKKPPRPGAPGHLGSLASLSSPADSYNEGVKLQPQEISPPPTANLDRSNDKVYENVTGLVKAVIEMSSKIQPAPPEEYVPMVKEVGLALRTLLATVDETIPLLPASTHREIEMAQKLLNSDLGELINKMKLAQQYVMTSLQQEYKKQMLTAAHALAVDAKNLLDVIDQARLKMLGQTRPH

[4] = molecular target: T3, WT EML4-ALK V3 (Homo sapiens, UniProt Q9UM73); assay: Western blot of pALK Tyr1507, ALK and tubulin in WT EML4-ALK V3 Ba/F3 cells
T3 construct: expressed in transfected cells; host or cells: Ba/F3; the other entry of the earlier key: EML4 (Q9HC35, Echinoderm microtubule-associated protein-like 4)
T3 sequence (Q9UM73 1058-1620 limits assumed): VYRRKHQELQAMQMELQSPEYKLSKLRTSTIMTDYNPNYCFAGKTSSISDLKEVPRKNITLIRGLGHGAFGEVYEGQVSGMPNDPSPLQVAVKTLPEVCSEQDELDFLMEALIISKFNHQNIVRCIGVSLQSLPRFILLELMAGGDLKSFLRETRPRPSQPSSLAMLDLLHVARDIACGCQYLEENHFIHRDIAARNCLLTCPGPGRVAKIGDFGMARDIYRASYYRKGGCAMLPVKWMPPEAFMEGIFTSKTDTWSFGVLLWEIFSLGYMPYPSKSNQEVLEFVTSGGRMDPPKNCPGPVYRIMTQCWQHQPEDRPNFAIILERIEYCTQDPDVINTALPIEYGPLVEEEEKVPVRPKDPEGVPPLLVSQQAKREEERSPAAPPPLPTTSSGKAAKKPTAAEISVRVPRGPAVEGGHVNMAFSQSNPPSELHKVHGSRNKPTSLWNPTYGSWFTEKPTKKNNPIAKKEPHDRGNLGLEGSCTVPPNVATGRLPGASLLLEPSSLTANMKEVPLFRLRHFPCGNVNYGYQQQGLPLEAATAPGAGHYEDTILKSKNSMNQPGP
Procedure: (§1) Cells treated with DMSO, compound 96, negative control of 96 or Loratinib at indicated concentrations (nM).
(§2) The cells were collected and washed with PBS buffer. Cell lysates were prepared by using NP40 lysis buffer (Invitrogen™) supplemented with complete protease inhibitor cocktail (Roche), PhosSTOP™ phosphatase inhibitor cocktail (Roche) and PMSF (1 mM). The lysates were cleared by centrifugation and resolved using Bolt™ 4-12% Bis-Tris plus gels and Western blotted to detect proteins of interest. Antibodies to phospho-ALK^Tyr1507 and tubulin (#14678S and #3873, Cell Signaling Technologies®) were used according to the manufacturers' instructions. For Western Blot visualization, Odyssey® Clx (Li-cor) was utilized.

[5] = molecular target: T4, G1202R EML4-ALK V3 (Homo sapiens, UniProt Q9UM73, G1202R); assay: Western blot of pALK Tyr1507, ALK and tubulin in G1202R EML4-ALK V3 Ba/F3 cells
T4 construct: expressed in transfected cells; host or cells: Ba/F3; the other entry of the earlier key: EML4 (Q9HC35, Echinoderm microtubule-associated protein-like 4)
T4 sequence (Q9UM73 1058-1620 G1202R limits assumed): as the sequence (Q9UM73 1058-1620 limits assumed) above, with G145R counted along it
Procedure: as §1, §2

[6] = compared to Alectinib and Lorlatinib

COc1cc(C2CCN(CCCC#Cc3cccc4c3CN(C3CCC(=O)NC3=O)C4=O)CC2)c(C)cc1Nc1ncc(Cl)c(Nc2ccccc2S(=O)(=O)C(C)C)n1 (stereo not drawn) [compound 96, 3-(4-(5-(4-(4-((5-chloro-4-((2-(isopropylsulfonyl)phenyl)amino)pyrimidin-2-yl)amino)-5-methoxy-2-methylphenyl)piperidin-1-yl)pent-1-yn-1-yl)-1-oxoisoindolin-2-yl)piperidine-2,6-dione]
Dmax ([1]; NCI-H3122, read-out: ALK Degradation (H3122 cells) Dmax): 79% | DC50 ([1]; read-out: ALK Degradation (H3122 cells) DC50): 3 nM | IC50 [2]: 12 nM | Dmax ([3]; NCI-H3122, Table 3): 92% | DC50 ([3]; Table 3): 2 nM | ALK degradation by Western blot ([4]; FIG. 1A, 1C): potent degrader | pALK inhibition by Western blot [4, 6]: significantly improved pALK inhibition compared to Alectinib and Lorlatinib | ALK degradation by Western blot ([5]; FIG. 1B, 1D): potent degrader | pALK inhibition by Western blot [5, 6]: significantly improved pALK inhibition compared to Alectinib and Lorlatinib
